In patent US10034886B2, “GLP-1 receptor modulators” (Celgene International II SÀRL, priority 2014, dated 2018):

These compounds were tested against T1, GLP-1R (Homo sapiens, UniProt P43220) (assay: EC20 GLP-1(9-36) PAM cAMP assay: dose response of compound in the presence of fixed concentration of GLP-1(9-36)). Conditions: GLP-1R CRE-bla CHO-K1 cells, compound dose response with fixed concentration of GLP-1(9-36), read-out: EC20 GLP-1(9-36) PAM EC50.
T1 construct: host or cells: GLP-1R CRE-bla CHO-K1 cells
T1 sequence (P43220 24-463): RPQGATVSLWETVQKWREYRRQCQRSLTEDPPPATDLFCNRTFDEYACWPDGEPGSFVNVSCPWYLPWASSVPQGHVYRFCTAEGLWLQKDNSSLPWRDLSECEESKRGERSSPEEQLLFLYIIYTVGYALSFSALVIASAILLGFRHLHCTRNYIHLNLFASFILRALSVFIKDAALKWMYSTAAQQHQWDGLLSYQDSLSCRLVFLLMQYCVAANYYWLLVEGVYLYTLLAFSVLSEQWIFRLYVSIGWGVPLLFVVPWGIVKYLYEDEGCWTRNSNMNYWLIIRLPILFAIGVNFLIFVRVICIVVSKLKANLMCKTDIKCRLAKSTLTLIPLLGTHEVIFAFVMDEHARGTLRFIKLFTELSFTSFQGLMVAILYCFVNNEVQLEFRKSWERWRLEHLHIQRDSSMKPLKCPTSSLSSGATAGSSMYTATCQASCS
T1 sequence (P01275 100-127 partner limits assumed): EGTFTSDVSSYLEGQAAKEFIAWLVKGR
Type: cell-based
In short: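 Positive allosteric modulation read as cAMP accumulation: compound titrations (12 points) combined with an EC20 level of GLP-1(9-36) on CHO-K1 GLP-1R CRE-bla cells, IBMX present, 30 min, 37 °C, pH 7.4 buffer. Luminescence converted to cAMP via standards; non-linear fit gave EC50 and Emax.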
For `COc1cc(C(=O)N[C@@H](Cc2ccc(-c3ncc(-c4ccc(OCCCC(C)C)cc4)cn3)cc2)C(=O)N2CC(C(=O)O)C2)ccc1C(C)(C)C` [Compound 1239], the EC50 was 800 to 2500 nM. `Cc1ccc(C2CCN(c3cnc(-c4ccc(C[C@H](NC(=O)c5ccc(C(C)(C)C)s5)C(=O)N5CC(C(=O)O)C5)cc4)nc3)CC2)cc1` [Compound 1430] gave an EC50 of under 800 nM. With `C[C@@H](NC(=O)[C@H](Cc1ccc(-c2ncc(-c3ccc4c(c3)C(=O)c3ccccc3-4)cn2)cc1)NC(=O)c1ccc(C(C)(C)C)s1)C(=O)O` [Compound 1290] the EC50 was 2500 to 5000 nM. `CCc1ccc(C(=O)N[C@@H](Cc2ccc(-c3ncc(-c4ccc([C@H]5CC[C@H](CC)CC5)cc4)cn3)cc2)C(=O)O)cn1` [Compound 1390] was tested, and the EC50 was 5000 to 10000 nM. `CCC[C@H]1CC[C@H](C2CCN(c3cnc(-c4ccc(C[C@H](NC(=O)c5ccc(C(C)(C)C)s5)C(=O)N5C6CCC5[C@@H](C(=O)O)C6)cc4)nc3)CC2)CC1` (stereo partly drawn) [Compound 1448] was tested, and the EC50 was 5000 to 10000 nM. `CC(C)(C)c1ccc(C(=O)N[C@@H](Cc2ccc(-c3ncc(-c4ccc(-c5ccc(OC(F)(F)F)cc5F)cc4F)cn3)cc2)C(=O)N2CC(C(=O)O)C2)s1` [Compound 1203] was tested, and the EC50 was under 800 nM. `CC(C)(C)c1ccc(C(=O)NC(Cc2ccc(-c3ncc(N4CCC(c5cccc(F)c5)CC4)cn3)cc2)C(=O)N2CC(C(=O)O)C2)s1` (stereo not drawn) [Compound 1484] was tested, and the EC50 was 800 to 2500 nM. `C[C@@H](NC(=O)[C@H](Cc1ccc(-c2ncc(-c3ccc(-c4ccccc4)nc3)cn2)cc1)NC(=O)c1ccc(C(C)(C)C)s1)C(=O)O` [Compound 1303] showed an EC50 of 5000 to 10000 nM. `CC(C)(C)c1ccc(C(=O)N[C@@H](Cc2ccc(-c3ncc(N4CCC(c5cccc(Br)c5)CC4)cn3)cc2)C(=O)N2CC(C(=O)O)C2)s1` [Compound 1488] was tested, and the EC50 was 800 to 2500 nM. For `CCC[C@H]1CC[C@H](C2CCN(c3cnc(-c4ccc(C[C@H](NC(=O)c5cnc(C(C)(C)C)nc5)C(=O)N5CC(C(=O)O)C5)cc4)nc3)CC2)CC1` [Compound 1514], the EC50 was under 800 nM. For `CC[C@H]1CC[C@H](c2ccc(-c3cnc(-c4ccc(C[C@H](NC(=O)c5ccc(C(C)(C)C)nc5)C(=O)O)cc4)nc3)cc2)CC1` [Compound 1367], the EC50 was under 800 nM. Compound `CCC[C@H]1CC[C@H](C2CCN(c3cnc(-c4ccc(C[C@H](NC(=O)c5ccc(C(C)(C)C)s5)C(=O)N5CCC(C(=O)O)CC5)cc4)nc3)CC2)CC1` [Compound 1457] has an EC50 of under 800 nM. For `CCC[C@H]1CC[C@H](C2CCN(c3cnc(-c4ccc(C[C@H](NC(=O)c5ccc(C(C)(C)C)s5)C(=O)N[C@H](Cc5c[nH]cn5)C(=O)O)cc4)nc3)CC2)CC1` [Compound 1446], the EC50 was under 800 nM.

Same assay, conditions: dose response of compound in presence of fixed concentration of GLP-1(9-36), GLP-1R CRE-bla CHO-K1 cells, read-out: EC20 GLP-1(9-36) PAM EC50
With `CC(C)Oc1ccc(-c2cnc(-c3ccc(C[C@H](NC(=O)c4ccc(C(C)(C)C)s4)C(=O)NC(C(=O)O)C(O)c4ccccc4)cc3)nc2)cc1` (stereo partly drawn) [Compound 931] the EC50 was 2500 to 5000 nM. `Cc1cc(-c2cnc(-c3ccc(C[C@H](NC(=O)c4ccc(C(C)(C)C)s4)C(=O)N4CC(C(=O)O)C4)cc3)nc2)ccc1OC(C)C` [Compound 1093] was tested, and the EC50 was under 800 nM. `CCCCCCCOc1ccc(-c2cnc(-c3ccc(C[C@H](NC(=O)c4cc(C)cs4)C(=O)O)cc3)nc2)cc1` [Compound 470] was tested, and the EC50 was under 800 nM. For `CCC/C=C/CCOc1ccc(-c2cnc(-c3ccc(C[C@H](NC(=O)c4ccc(C(C)(C)C)cc4)C(=O)NCCC(=O)O)cc3)nc2)cc1` [Compound 716], the EC50 was 800 to 2500 nM. With `CCCCCCCOc1ccc(-c2cnc(-c3ccc(C[C@H](NC(=O)c4ccc(C(C)(C)C)cc4)C(=O)N[C@@H](CC(=O)NCC(=O)O)C(=O)O)cc3)nc2)cc1` [Compound 480] the EC50 was 800 to 2500 nM. `CCCCCCCOc1cc(C)c(-c2cnc(-c3ccc(C[C@H](NC(=O)c4ccc(C(C)(C)C)s4)C(=O)N[C@H](C)C(=O)O)cc3)nc2)c(C)c1` [Compound 791] was tested, and the EC50 was 800 to 2500 nM. For `CC(C)CCOc1ccc(-c2cnc(-c3ccc(C[C@H](NC(=O)c4ccc(C(C)(C)C)cc4)C(=O)NCCC(=O)O)cc3)nc2)cc1` [Compound 456], the EC50 was 800 to 2500 nM. `CCCCCCCOc1ccc(-c2cnc(-c3ccc(C[C@H](NC(=O)c4ccc(C(C)(C)C)s4)C(=O)N[C@@H](C(=O)O)[C@@H](C)O)cc3)nc2)cc1` [Compound 659] gave an EC50 of under 800 nM. For `CCCC(C)COc1ccc(-c2cnc(-c3ccc(C[C@H](NC(=O)c4ccc(C(C)(C)C)cc4)C(=O)NCCC(=O)O)cc3)nc2)cc1` (stereo partly drawn) [Compound 707], the EC50 was 5000 to 10000 nM. `CCCCCCCOc1ccc(-c2cnc(-c3ccc(C[C@H](NC(=O)c4ccc(C(C)(C)C)cc4)C(=O)N4CCC[C@H]4C(=O)O)cc3)nc2)cc1` [Compound 660] was tested, and the EC50 was 800 to 2500 nM. `CCCCCCCOc1ccc2nc(-c3ccc(C[C@H](NC(=O)c4ccc(C(C)(C)C)cc4)C(=O)N4CC[C@H](C(=O)O)C4)cc3)ccc2c1` [Compound 807] gave an EC50 of 5000 to 10000 nM. With `CCCCCCCOc1ccc(-c2cnc(-c3ccc(C[C@H](NC(=O)c4ccc(C(F)(F)F)cc4)C(=O)N[C@H](C)C(=O)O)cc3)nc2)cc1` [Compound 822] the EC50 was 2500 to 5000 nM. `CCCCCCOc1ccc(-c2cnc(-c3ccc(C[C@H](NC(=O)c4ccc(C(C)(C)C)cc4)C(=O)NCCC(=O)O)cc3)nc2)cc1` [Compound 490] showed an EC50 of 800 to 2500 nM. With `Cc1ccc(-c2ccc(-c3cnc(-c4ccc(C[C@H](NC(=O)c5ccc(C(C)(C)C)s5)C(=O)N5CC(C(=O)O)C5)cc4)nc3)c(F)c2)cc1Cl` [Compound 1196] the EC50 was under 800 nM. `CCCCCCCOc1ccc(-c2cnc(-c3ccc(C[C@H](NC(=O)c4ccc(CC)cc4)C(=O)N4CC(C(=O)O)C4)cc3)nc2)cc1` [Compound 1108] was tested, and the EC50 was under 800 nM. Work on `CC[C@H]1CC[C@H](c2ccc(-c3cnc(-c4ccc(C[C@H](NC(=O)c5ccc(C(C)(C)C)s5)C(=O)N5CC[C@H](C(=O)O)C5)cc4)nc3)cc2)CC1` [Compound 1137] yielded an EC50 of under 800 nM. Work on `CCCCCCCOc1ccc(-c2cnc(-c3ccc(C[C@H](NC(=O)Cc4ccc(OCCCC)cc4)C(=O)N4CC(C(=O)O)C4)cc3)nc2)cc1` [Compound 1102] yielded an EC50 of 800 to 2500 nM. With `CC(C)CCCOc1ccc(-c2cnc(-c3ccc(C[C@H](NC(=O)c4ccc(C(C)(C)C)cc4)C(=O)NCCC(=O)O)cc3)nc2)cc1` [Compound 458] the EC50 was 800 to 2500 nM. `CCCCCCCOc1ccc(-c2cnc(-c3ccc(C[C@H](NC(=O)c4ccc(C(C)(C)C)s4)C(=O)N4CCN(c5ncccn5)CC4)cc3)nc2)cc1` [Compound 967] gave an EC50 of 2500 to 5000 nM. Work on `CCCCCCCOc1ccc(-c2cnc(-c3ccc(C[C@H](NC(=O)c4ccc(C(C)(C)C)s4)C(=O)NCCCN4CCOCC4)cc3)nc2)cc1` [Compound 964] yielded an EC50 of 2500 to 5000 nM. `CCSc1ccc(-c2cnc(-c3ccc(C[C@H](NC(=O)c4ccc(C(C)(C)C)s4)C(=O)N[C@H](C)C(=O)O)cc3)nc2)cc1` [Compound 998] was tested, and the EC50 was 2500 to 5000 nM. Work on `CCCCCCCOc1ccc(-c2cnc(-c3ccc(C[C@H](NC(=O)c4ccc(C(C)(C)C)s4)C(=O)NC[C@@H]4CCNC4)cc3)nc2)cc1` [Compound 439] yielded an EC50 of 2500 to 5000 nM. In the case of `CCCCCCCOc1ccc(-c2cnc(-c3ccc(C[C@H](NC(=O)c4ccc(C(C)(C)C)s4)C(=O)N4CCCC45CNC5)cc3)nc2)cc1` [Compound 1048], the EC50 is reported as 2500 to 5000 nM. With `CCCCCCCOc1ccc(-c2cnc(-c3ccc(C[C@H](NC(=O)c4ccc(C(C)(C)C)cc4)C(=O)N4CC(C(=O)O)CC4C)cc3)nc2)cc1` (stereo partly drawn) [Compound 893] the EC50 was 2500 to 5000 nM. For `CCCCCCCOc1ccc(-c2cnc(-c3ccc(C[C@H](NC(=O)c4ccc(C(C)(C)C)s4)C(=O)NC(COC)C(=O)O)cc3)nc2)cc1` (stereo partly drawn) [Compound 595], the EC50 was under 800 nM. `CCOc1cc(-c2cnc(-c3ccc(C[C@H](NC(=O)c4ccc(C(C)(C)C)s4)C(=O)N[C@H](C)C(=O)O)cc3)nc2)ccc1OC(F)(F)F` [Compound 1004] was tested, and the EC50 was 800 to 2500 nM.
